Reference: patent publication US7456153B2, “Compounds and methods for modulating functions of classical cadherins” (Adherex Technologies Inc., priority 2002, dated 2008)

test system: SKOV3 human ovarian cancer cells; experiment: Disruption of confluent SKOV3 monolayers (microscopic examination); format: cell-based; settings: 1 mg/ml of culture medium, 24 hours
Method: We investigated the effects of the linear peptide ADH254 (H-DWVIPP-NH2; classical cadherin derived peptide) on confluent cultures of SKOV3 cells. SKOV3 human ovarian cancer cells express N-cadherin. The cells were cultured in minimum essential medium (MEM) supplemented with 10% fetal calf serum, non-essential amino acids, fungizone, penicillin-streptomycin, and gentamicin in a humidified atmosphere (5% CO2) at 37° C. All culture reagents were purchased from GIBCO (Burlington, ON). ADH254 (1 mg/ml of culture medium) was added to confluent cultures of SKOV3 cells. After 24 hours of treatment, the cells were fixed with 4% paraformaldehyde, followed by 3 washes with phosphate buffered saline, and then stained with hematoxylin. Control cultures were grown in the absence of peptide.
The peptide caused the SKOV3 cells to detach from one another and adopt an elongated, fibroblast-like morphology. These observations indicate that Trp containing peptides can disrupt cell adhesion.

Substance | disruption of confluent SKOV3 monolayers
DWVIPP [H-DWVIPP-NH2] | caused disruption of the confluent SKOV3 monolayers

biological target: Fc-E-cadherin chimeric protein; experiment: BIAcore binding of peptide modulating agents to captured Fc-E-cadherin; settings: absence of calcium
Method: The binding of representative peptide modulating agents to Fc-E-cadherin chimeric protein in either the presence (3 mM CaCl2) or absence of calcium was assessed using a BIAcore X™ Biosensor (Pharmacia Ltd., Sweden). Protein A was immobilized on the flow cells of a CM 5 sensor chip using a standard amine coupling method. The surfaces were activated with a 7 min injection of NHS/EDC, followed by a 7 min injection of protein A in 10 mM acetate pH 5.0 at a concentration of 50 ug/mL and blocked with a 7 min injection of […] ethanolamine, pH 8.2. […] Next, Fc-E-cadherin was injected over the protein A surface to be captured on the sensor chip.
To test compound binding to these surfaces, candidate modulating agents were injected in a three-fold dilution series over the Fc-E-cadherin-coated surfaces using six concentrations and each concentration was repeated twice.

Substance | KD Fc-ECAD no Ca++
AWVIPP [H-AWVIPP-NH2] | no binding
DWVAPP [H-DWVAPP-NH2] | no binding
DWVIAP [H-DWVIAP-NH2] | no binding
DWVIPA [H-DWVIPA-NH2] | no binding
DWVIPP [H-DWVIPP-NH2] | no binding
PWVIPP [H-PWVIPP-NH2] | no binding
